Experiment: Human HepG2 cell viability assay in 384 well format
Type: toxicity, cell-based
Set-up: dose 125 nL, time 70.5 hour; cytotoxicity at 70.5 h: concentration not given beside the values
Settings: HepG2 cells, read-out: Inhibition

Structure (SMILES)	cytotoxicity at 70.5 h [%]
CCOc1cccc(NC(=O)c2cscn2)n1	-9.11
CCOCCCOC(=O)c1ccc2c(c1)[nH]c(=O)n2C	18.6
Fc1ccc(C2(CNC3=NCCN3)CCCC2)cc1	3.33
CC(C)(C)n1ccc(C(=O)N2CCCC(c3ncc[nH]3)C2)c1 (stereo not drawn)	-1.92
CCc1nc2n(n1)CC(NCc1nc(Cc3ccccc3)no1)CC2 (stereo not drawn)	25.4
CCC(CO)N(Cc1ccccn1)Cc1ccc(-c2ccn[nH]2)s1 (stereo not drawn)	-14
Cc1nc(-c2cnn(C)c2)sc1C(=O)NCc1cccc(CN(C)C)c1	-6.53
Cn1c(CNc2c(F)cccc2-n2cccn2)cc(=O)n(C)c1=O	0.334
CCc1ccc(CN(C)C(=O)c2cnc3c(c2)nc(N)n3CC)nc1	-8.01
CN1CCC(NC(=O)Nc2cnn(-c3ccccc3Cl)c2)CC1	-5.23
O=C(NCc1ccccc1Cn1cncn1)C1CCCCC1	-9.09
CNC(=O)[C@@H](c1ccccc1OC)N1CCC[C@H]1C(=O)NC(C)(C)C	-8.72
COc1ccc(OC)c(NC(=O)NCC(O)c2ccc(F)c(F)c2)c1 (stereo not drawn)	9.62
COc1ccc(-c2cccc(-c3ccn(CCN(C)C)n3)c2)nn1	-3.58
CCc1nc(CNc2ccc(C(=O)NCc3ccco3)cc2C)no1	-9.99
O=C(NCc1ccccn1)[C@@H]1CCO[C@@H]2CCN(Cc3ccoc3)C[C@H]21	-1.45
CS(=O)(=O)c1cccc(C(N)c2ccc(F)cc2)c1 (stereo not drawn)	-3.93
COc1ccc(CN2C[C@@H]3[C@H](CC(=O)N4CCCC4)[C@@H]3C2)cc1	-9.32
CCOc1ccccc1C(C(=O)O)N(C)CC1CCOCC1 (stereo not drawn)	21.4
CCn1nccc1CN(C)C(=O)Cn1cc2c(n1)c(C)nn2CC	-1.76
Cc1cc2nc(C(C)C)cc(NCc3ccncc3)n2n1	-7.5
Cn1ccc(C(=O)NCc2ccc(N3CCCCC3)nc2)cc1=O	18.6
Cc1cc(C(C)NC(=O)c2c[nH]c(=O)c(Cl)c2)c(C)o1 (stereo not drawn)	-1.21

Structure (SMILES)	cytotoxicity at 70.5 h [%]
CC(C)C(C)NC(=O)CCN1C(=O)CCc2cc(F)ccc21 (stereo not drawn)	19.4
CN(C)c1nc(NCCc2ccccn2)ncc1F	25.5
Cc1cccc(C)c1OCC(O)CNCc1c(C)nn(C)c1N(C)C (stereo not drawn)	-4.45
COc1ccc(-c2nc(CN3CCc4c(ncn4C)C3)cs2)cc1	21.3
CN([C@@H]1CC[C@@H](N2CCCC2)[C@@H]1O)S(=O)(=O)c1ccccc1	24.7
CN(C)C(=O)c1nc2c(n1C)CCN(Cc1ccccc1)C2	0.767
CN(Cc1ccsc1)Cc1nc(-c2ccncc2)no1	20.5
Cc1cccc(-c2cc(-c3c(C)nn(CCO)c3C)c(C#N)c(N)n2)c1	-11.4
Brc1ccc(CN2CCC(NCc3ncc[nH]3)CC2)cc1	-0.173
CCc1nn(-c2cc(Oc3ccccc3)nc(C)n2)c(N)c1C#N	2.22
O=C(Cc1cccnc1)N1CCC2(CCN(C3CCOC3)CC2)C1 (stereo not drawn)	20.9
c1ccc(CCN2CCOC3(CCc4ccccc43)C2)nc1 (stereo not drawn)	-15.8
O=C(N1CC(c2cccnc2)C1)C1(c2ccc(F)cc2)CCOCC1	3.01
CN(C)c1cc(C2CCCN(C(=O)c3ccc(=O)[nH]n3)C2)ccn1 (stereo not drawn)	-1.67
O=C1N(Cc2cccnc2)CCC12CCCN(c1ncccn1)C2 (stereo not drawn)	17.3
O=S(=O)(NCCNc1ccc(-n2cccc2)nn1)c1ccccc1	-5.01
c1cnc2c(c1)cc([C@H]1CCCO1)n2CCN1CCCCC1	20.3
N[C@H]1CN(C(=O)c2ccccc2OCCc2ccccc2)C[C@@H]1C1CC1	-8.08
Cc1ccc(-c2nc(CN(C)C3CCS(=O)(=O)C3)cs2)o1 (stereo not drawn)	-8.59
CCOCC(O)CN1CCN(C(=O)c2ccc(N(C)C)nc2)CC1 (stereo not drawn)	1.39
Cc1noc(C2CCC3(CCN(C(=O)c4c(C)noc4C)CC3)O2)n1 (stereo not drawn)	-5.47
Cc1noc(C)c1S(=O)(=O)N1CCC(Oc2cnccn2)CC1	11.2
CN(C)c1nc(CNC(=O)Nc2cccc([S+](C)[O-])c2)cs1 (stereo not drawn)	-5.56

Structure (SMILES)	cytotoxicity at 70.5 h [%]
CCOCC(O)CN1CCN(C(=O)Cc2cccc(C)c2)CC1 (stereo not drawn)	-4.31
CCOC(=O)Cc1n[nH]c(-c2cncc(Br)c2)n1	7.76
Cc1ccccc1OC1CN(Cc2c(C)nc3ccccn23)C1	26.8
FC(F)(F)c1ccnc(N2CCCN(C3CCOCC3)CC2)c1	-11.5
Cc1cc(C(=O)NC2CC(=O)N(C(C)C)C2=O)c(C)n1C(C)C (stereo not drawn)	-7.47
CCn1ccc(NC(=O)CN2C(=O)CC(C)(C)c3ccccc32)n1	-8.59
COc1ccc(CN2CC(O)CN(C(=O)C3CCC3)CC2=O)cc1 (stereo not drawn)	-0.603
CCc1nnsc1C(=O)N1CCCN(Cc2ccccc2)CC1	-8.56
CCOCC(=O)Nc1cccc(Oc2ccccn2)c1	-3.31
O=C(c1nc(Cc2c[nH]c3ccccc23)no1)N1CCCC1	-3.26
COCc1nnc2n1CCN(Cc1ccoc1)C2	-3.74
Cc1ncsc1CCN(C)C(=O)CCc1nc2cccnc2n1C	-11.9
O=C(NCc1nncn1C1CCCCC1)C1COc2ccccc2C1 (stereo not drawn)	-4
Cc1nc(CN(C)C2CCN(Cc3ccc4ccccc4n3)C2)no1 (stereo not drawn)	20.5
Cc1c(Cl)cccc1NC(=O)CCNc1ccc(C#N)cn1	-6.94
CS(=O)(=O)N[C@@H]1CN(C(=O)c2cc3ccccc3s2)C[C@H]1O	19
CN1CCC(Cc2cnc3ccccc3c2)C1 (stereo not drawn)	1.19
COc1ccc(CNC(Cn2cncn2)c2ccccc2)cc1C (stereo not drawn)	-4.57
O=c1[nH]ncc(NCCOc2ccc3c(c2)CCC3)c1Cl	-11.7
CNC(=O)[C@H]1C[C@@H]2CN(C(=O)NCCc3ccccc3)C[C@H]1O2	-12
CC(c1ccncc1)N(CCN(C)C)C(=O)Nc1ccc(Cl)c(Cl)c1 (stereo not drawn)	-11.5
CC(C)n1ccnc1CNC(=O)c1cccc(CCC(C)(C)O)c1	-10.5
O=C(NCc1cccnc1)N1CCn2c(Cn3cccn3)cnc2C1	-0.141

Structure (SMILES)	cytotoxicity at 70.5 h [%]
Cc1cc(C(C)(O)CNC(=O)CCn2ccnc2C(C)C)c(C)o1 (stereo not drawn)	9.42
CC(C)CNc1nnc(SC(C(=O)NCc2cccnc2)C(C)C)s1 (stereo not drawn)	-15.2
N[C@H]1CN(C(=O)c2ccc(Cl)cc2F)C[C@@H]1C1CC1	-4.7
COc1ccc(S(=O)(=O)NC(=O)c2c(C)noc2C(C)C)cc1OC	-2.97
O[C@H]1[C@H](n2cc(-c3ccccn3)nn2)c2ccccc2C12CCNCC2	-3.68
CCn1c(CC2CCN(C(=O)C3CNCCO3)CC2)nn(C)c1=O (stereo not drawn)	-16.2
Cc1nnc(C(C)NCC2(c3ccc(F)cc3)CCCCC2)o1 (stereo not drawn)	-5.27
COc1ccc(CN2CCn3c(CNS(C)(=O)=O)nnc3C2)cc1	24.4
CCC(C)c1noc(C2CCN(C(=O)c3ccccn3)CC2)n1 (stereo not drawn)	-3.62
CCN(Cc1ccoc1)c1ncc(S(N)(=O)=O)s1	-7.46
O=C(C1CCOCC1)N1CCc2ncnc(-c3ccccc3)c2CC1	1.86
CC(C)c1nc(CN(C)Cc2ccc(F)cc2)cs1	-22.4
COc1ccc(C(=O)C2CCCN(Cc3cc(C)n[nH]3)C2)c(OC)c1 (stereo not drawn)	-5.48
Cc1ccc(CN2CC[C@@H](O)[C@@H]2Cc2cnn(C)c2)o1	-10.4
O=C(NCCCO)Nc1cccc(C[S+]([O-])c2ccccc2)c1 (stereo not drawn)	-6.37
CN(c1cccnn1)C1CCN(C(=O)c2ccc3c(c2)COC3)CC1	-13.7
O=C(NCc1cccs1)C1CNCC12CCOCC2 (stereo not drawn)	0.759
O=C(NCCCOCC1CC1)Nc1cccnc1N1CCOCC1	-5.01
Cc1cc(C)n(C(=O)Cn2nc(C)c(I)c2C)n1	-7.22
Cc1ccc(C(=O)NS(=O)(=O)Cc2ccon2)c(C)c1	-4.2
CN1CCOCC2(CCCN(C(=O)c3cn(C)cn3)C2)C1 (stereo not drawn)	0.515
O=C(NCCN1CCCc2ccccc21)c1scnc1Cl	10.6
Cc1ccc(OC2(C(=O)O)CCN(C(=O)c3ccsc3)CC2)cn1	-4.13

Structure (SMILES)	cytotoxicity at 70.5 h [%]
CN(CCOc1cccc(CNC(=O)C2CC2)c1)C1CCOCC1	-8.5
Cc1cc(C)n(CC2CN(CCOc3ccc(C#N)cc3)CCO2)n1 (stereo not drawn)	-4.48
O=C(Nc1ccc(F)cc1F)Nc1c[nH]c(=O)[nH]c1=O	-14.5
Cc1noc([C@@H]2C[C@H]3OCC[C@H]3N(S(=O)(=O)c3cccnc3)C2)n1	-8.05
CN(Cc1nc(-c2ccoc2)no1)C1CCCN(c2cccnn2)C1 (stereo not drawn)	1.16
Cc1cnc(-c2nc(NC3CC3)ncc2-c2cc(C)no2)cn1	12
COC(=O)c1cccc(S(=O)(=O)NC(=O)COC2CCCCC2)c1	-3.15
CCOc1ccc(C(=O)NC2CC2)cc1C	-7.46
Cc1cccc(C2CCCN(C(=O)CN3CCC(C(N)=O)CC3)C2)c1 (stereo not drawn)	-4.32
O=C([C@@H]1CC[C@@H]2[C@@H](CCN2CCOCc2ccccc2)O1)N1CCCC1	13
Cc1cc(C(=O)N2CCCC(C(=O)c3cccs3)C2)c(=O)[nH]c1C (stereo not drawn)	17.8
Cc1ccc(F)c(C(=O)N2C[C@@H](C(=O)O)[C@H](c3ccccc3)C2)c1Cl	1.54
O=C(c1ccc[nH]1)N1CCC2(CCCN2Cc2cccnc2)CC1	0.719
CCc1nc(CN(C)C2CCN(CC(=O)N3CCOCC3)C2)no1 (stereo not drawn)	-1.36
Cc1cnc(C)c(Oc2ccc(CN3CCCC3)cc2Cl)n1	-4.06
COCCn1ccnc1C1CCCN(C(=O)c2ccncc2F)C1 (stereo not drawn)	11
Cc1noc(CN2CCC(c3ccnn3CCO)CC2)n1	-13.4
COc1ccc([C@@H]2CN(c3cnccn3)C[C@H]2N(C)C)cc1	22
Cc1cc(N(C)CCCn2cccn2)nc(N)n1	-12.7
CC(C)CN1CCCn2nc(CNC(=O)OCc3ccccc3)cc2C1	-5.5
c1cncc(CN2CC[C@H]3O[C@@H](COCC4CCOCC4)CC[C@H]32)c1	-7.03

Reference: ChEMBL document CHEMBL3507680, “University of Dundee, Gates Library screen for HepG2 cell viability”
